The record followed here is patent publication US7994334B2, “Fungicide pyridinyloxy substituted phenylamidine derivatives” (Bayer Cropscience AG, priority 2005, dated 2011).

The first series in a line: logP by HPLC on reversed-phase column (C 18), EEC Directive 79/831 Annex V.A8. The format is physicochemical. As to conditions: C 18, 40° C., 0.1% aqueous formic acid and acetonitrile. As to the method:
Temperature: 40° C.; Mobile phases: 0.1% aqueous formic acid and acetonitrile; linear gradient from 10% acetonitrile to 90% acetonitrile.
As to `CCCN(C)C=Nc1cc(C)c(Oc2cc(Cl)cc(C(C)C)n2)cc1C` [Example 54], the logPa is given as 2.35. In turn, `CCCN(C)C=Nc1cc(C)c(Oc2cccc(Br)n2)cc1C` [Example 58] yielded a logPa of 2.04. Consider `CCN(C=Nc1cc(C)c(Oc2cc(C(F)(F)F)cc(Cl)n2)cc1C)CC` [Example 18], for which the logPa is 2.59. `Cc1cc(Oc2cc(C(F)(F)F)cc(Cl)n2)c(C(C)(C)C)cc1N=CN(C)C(C)C` [Example 20] gave a logPa of 3.17. Still for that read-out and setting: the figure for `CCN(C)C=Nc1cc(C)c(Oc2cncc(Cl)c2)cc1C` [Example 67] is 1.82; for `CCc1cc(Cl)cc(Oc2cc(C)c(N=CN3CCCC3)cc2C)n1` [Example 41] it is 1.95; for `CCN(C)C=Nc1cc(C(C)C)c(Oc2cc(C(F)(F)F)cc(Cl)n2)cc1C` [Example 24] it is 2.87. As to `CCN(C)C=Nc1cc(C)c(Oc2ccc(C(F)(F)F)cn2)cc1C` [Example 10], the logPa amounted to 1.86. On the same count and under the same terms, the value for `Cc1cc(Oc2ccnc(Cl)c2)c(C)cc1N=CN1CCCCC1` [Example 70] was 1.66; that for `CCCN(C)C=Nc1cc(C)c(Oc2ccnc(Cl)c2)cc1C` [Example 72] was 1.56. For the compound `CCN(C)C=Nc1ccc(Oc2cc(-c3ccccc3Cl)c(C)cn2)cc1C` [Example 16], the logPa was 2.39.

Consider `CCCN(C)C=Nc1cc(C)c(Oc2cc(C(F)(F)F)cc(Cl)n2)cc1C` [Example 19], for which the logPa stood at 2.66. Consider `CCCN(C)C=Nc1cc(C)c(Oc2ccc(C)c(Cl)n2)cc1C` [Example 51], for which the logPa worked out at 2.17. In the case of `CCCN(C)C=Nc1cc(C)c(Oc2ccnc(C(F)(F)F)c2)cc1C` [Example 78], the logPa is given as 1.75. Turning to `CCN(C)C=Nc1cc(C)c(Oc2ccc(C)c(Cl)n2)cc1C` [Example 49], the logPa is 2.01. Take `CCN(C)C=Nc1ccc(Oc2ncc(C(F)(F)F)cc2Cl)cc1C` [Example 2]: the logPa was determined as 2.21. Same read-out and setting: the figure for `Cc1cc(Oc2ccc(C)c(Cl)n2)c(C)cc1N=CN1CCCCC1` [Example 50] is 2.21. With `CCN(C)C=Nc1cc(C)c(Oc2ccc(C#N)cn2)cc1C` [Example 35], the logPa is 1.47.

Consider `CCN(C)C=Nc1ccc(Oc2ccc(Cl)cn2)cc1C` [Example 5], for which the logPa was found to be 1.58. As for `Cc1cc(Oc2cccc(Cl)n2)c(C)cc1N=CN1CCCCC1` [Example 47], the logPa is listed as 1.96. With `CCc1nccc(Oc2cc(C)c(N=CN3CCCC3)cc2C)c1Cl` [Example 76], the logPa is 1.43. Turning to `CCN(C)C=Nc1cc(C)c(Oc2ncc(C(F)(F)F)cc2Cl)cc1C` [Example 44], the logPa came to 2.15. Compound `Cc1cc(Oc2ccc(C(F)(F)F)c(Cl)n2)c(C)cc1N=CN(C)C(C)C` [Example 13] displayed a logPa of 2.51.

Regarding `Cc1cc(Oc2ncc(C(F)(F)F)cc2Cl)c(C)cc1N=CN(C)C(C)C` [Example 43], the logPa was 2.29. For the compound `Cc1cc(Oc2cc(Cl)cc(C(C)C)n2)c(C)cc1N=CN1CCCC1` [Example 55], the logPa is recorded as 2.22. Compound `CCN(C)C=Nc1cc(C)c(Oc2cc(C(F)(F)F)ccn2)cc1C` [Example 27] came in with a logPa of 1.96. The compound `CCc1cc(Cl)cc(Oc2cc(C)c(N=CN(C)CC)cc2C)n1` [Example 48] registered a logPa of 1.98. With `Cc1cc(Oc2ccnc(C(F)(F)F)c2)c(C)cc1N=CN1CCCC1` [Example 80], the logPa is given as 1.69. Take `CCN(C)C=Nc1cc(C)c(Oc2cc(Cl)cc(C(C)C)n2)cc1C` [Example 33]: the logPa is 2.18. The same measure, in the same setting: the figure for `Cc1cc(Oc2cccc(Br)n2)c(C)cc1N=CN1CCCCC1` [Example 59] is 2.06; for `CCN(C)C=Nc1cc(C)c(Oc2ncc(Cl)cc2Cl)cc1C` [Example 28] it is 2.00. For `CCN(C)C=Nc1cc(C)c(Oc2cccc(C(F)(F)F)n2)cc1C` [Example 61], the logPa amounted to 1.98. Turning to `Cc1cc(Oc2cc(C(F)(F)F)cc(Cl)n2)c(C(C)C)cc1N=CN(C)C(C)C` [Example 21], the logPa came to 2.97.

Compound `Cc1cc(Oc2cccc(Br)n2)c(C)cc1N=CN1CCCC1` [Example 60] gave a logPa of 1.90. The compound `CCN(C)C=Nc1cc(C)c(Oc2ccc(Cl)cn2)cc1C` [Example 8] yielded a logPa of 1.84. As for `CCN(C)C=Nc1cc(C)c(Oc2cccc(Br)n2)cc1C` [Example 57], the logPa was determined as 1.89.

Compound `Cc1cc(Oc2cc(C(F)(F)F)cc(Cl)n2)ccc1N=CN(C)C(C)C` [Example 7] displayed a logPa of 2.22. Turning to `Cc1cc(Oc2ccc(C)c(Cl)n2)c(C)cc1N=CN1CCCC1` [Example 52], the logPa was 2.05.

The compound `CCCN(C)C=Nc1cc(C)c(Oc2ncc(Cl)cc2Cl)cc1C` [Example 29] showed a logPa of 2.22. On the same count and under the same terms, the value for `CCN(C)C=Nc1ccc(Oc2cc(Cl)ccn2)cc1C` [Example 3] was 1.50; that for `CCCN(C)C=Nc1cc(C)c(Oc2cc(Cl)cc(CC)n2)cc1C` [Example 42] was 2.00. The same measure, in the same setting: the value for `CCN(C)C=Nc1cc(C)c(Oc2cc(Cl)cc(C)n2)cc1C` [Example 23] was 1.58.

On to `CCCN(C)C=Nc1cc(C)c(Oc2ccnc(CC)c2Cl)cc1C` [Example 74], for which the logPa was found to be 1.59. As to `Cc1cc(Oc2ccnc(Cl)c2)c(C)cc1N=CN1CCCC1` [Example 71], the logPa came to 1.52. Take `CCN(C)C=Nc1cc(C)c(Oc2cc(-c3ccccc3Cl)c(C)cn2)cc1C` [Example 15]: the logPa is 2.58.

`Cc1cc(Oc2cccc(Cl)n2)c(C)cc1N=CN1CCCC1` [Example 46] gave a logPa of 1.81.

`CCN(C)C=Nc1cc(C)c(Oc2ccc(C(F)(F)F)c(Cl)n2)cc1C` [Example 11] had a logPa of 2.11. Turning to `CCCN(C)C=Nc1cc(C)c(Oc2ccc(C#N)cn2)cc1C` [Example 36], the logPa is 1.63.

As to `CCN(C)C=Nc1cc(C)c(Oc2ccnc(C(F)(F)F)c2)cc1C` [Example 77], the logPa stood at 1.75. On the same count and under the same terms, the value for `CCN(C)C=Nc1cc(C)c(Oc2cc(Cl)ccn2)cc1C` [Example 56] was 1.75; that for `CCN(C)C=Nc1cc(C)c(Oc2ccc(C)nc2)cc1C` [Example 65] was 0.60. The compound `CCN(C)C=Nc1cc(C)c(Oc2cccnc2C)cc1C` [Example 66] returned a logPa of 1.56. Same read-out and setting: the figure for `Cc1cc(Oc2cc(Cl)cc(C(C)C)n2)c(C)cc1N=CN(C)C(C)C` [Example 34] is 2.34; for `CCN(C)C=Nc1cc(C)c(Oc2ccc(C(F)(F)F)c(Cl)n2)cc1C` [Example 6] it is 2.36; for `Cc1cc(Oc2cc(C(F)(F)F)cc(Cl)n2)c(C)cc1N=CN(C)C(C)C` [Example 12] it is 2.52. Same read-out and setting: the figure for `Cc1cc(Oc2ccnc(C(F)(F)F)c2)c(C)cc1N=CN1CCCCC1` [Example 79] is 1.78.

Compound `CCN(C)C=Nc1ccc(Oc2cc(C(F)(F)F)cc(Cl)n2)cc1C` [Example 4] had a logPa of 2.20. Still for that read-out and setting: the value for `CCN(C)C=Nc1cc(C)c(Oc2cc(C(F)(F)F)cc(C)n2)cc1C` [Example 25] was 2.19. Still for that read-out and setting: the value for `CCN(C)C=Nc1ccc(Oc2ccc(C(F)(F)F)cn2)cc1C` [Example 9] was 1.79. Take `CCN(C)C=Nc1ccc(Oc2ccc(I)cn2)cc1C` [Example 17]: the logPa is reported as 1.87. As for `Cc1cc(Oc2ccc(C#N)cn2)c(C)cc1N=CN1CCCC1` [Example 39], the logPa worked out at 1.46. On the same count and under the same terms, the figure for `CCN(C)C=Nc1cc(C)c(Oc2cc(C(F)(F)F)c(F)c(F)n2)cc1C` [Example 62] is 2.31; for `CCN(C)C=Nc1cc(C)c(Oc2cc(C#N)ccn2)cc1C` [Example 31] it is 1.42; for `CCN(C)C=Nc1cc(C(C)(C)C)c(Oc2cc(C(F)(F)F)cc(Cl)n2)cc1C` [Example 22] it is 2.83. On the same count and under the same terms, the figure for `C=CCN(C)C=Nc1cc(C)c(Oc2ccnc(CC)c2Cl)cc1C` [Example 73] is 1.51; for `CCN(C)C=Nc1cc(C)c(Oc2cccc(-c3ccc(Cl)cc3)n2)cc1C` [Example 45] it is 2.66.

For the compound `C=CCN(C)C=Nc1cc(C)c(Oc2ccnc(Cl)c2)cc1C` [Example 81], the logPa was determined as 1.74. `CCc1nccc(Oc2cc(C)c(N=CN3CCCCC3)cc2C)c1Cl` [Example 75] yielded a logPa of 1.56. For `Cc1cc(Oc2ccc(C#N)cn2)c(C)cc1N=CN1CCCCC1` [Example 38], the logPa worked out at 1.58. Regarding `Cc1cc(Oc2cc(Cl)cc(C(C)C)n2)c(C)cc1N=CN1CCCCC1` [Example 53], the logPa was 2.34. On the same count and under the same terms, the figure for `C=CCN(C)C=Nc1cc(C)c(Oc2ccc(C#N)cn2)cc1C` [Example 37] is 1.56; for `CCCc1cc(CCC)nc(Oc2cc(C)c(N=CN(C)CC)cc2C)c1` [Example 30] it is 2.97.

The series is the same for the next values; noted with them: pH 2.3, C 18.
Take `CCc1nccc(Oc2cc(C)c(N=CN(C)CC)cc2C)c1Cl` [Example 68, N-Ethyl-N-methyl-N′-[4-(2-ethyl-3-chloropyridyl-4-oxy)-2,5-xylyl]form-amidine]: the “log P (pH 2.3)” value was determined as 1.47. Consider `Cc1cc([N+](=O)[O-])c(C)cc1Oc1cncc(Cl)c1` [4-(3-chlorpyridyl-5-oxy)-2,5-dimethylnitrobenzene], for which the “log P (pH 2.3)” value worked out at 3.61. As to `CCc1nccc(Oc2cc(C)c(N)cc2C)c1Cl` [4-(2-Ethyl-3-chloropyridyl-4-oxy)-2,5-xylidine], the “log P (pH 2.3)” value worked out at 1.66. Still for that read-out and setting: the figure for `CCN(C)C=Nc1cc(C)c(Oc2cc(C(F)(F)F)cc(Cl)n2)cc1C` [Example 1, N-Ethyl-N-methyl-N′-[4-(2-chlor-4-trifluormethylpyridyl-6-oxy)-2,5-xylyl]form-amidine] is 2.39; for `Cc1cc(Oc2cncc(Cl)c2)c(C)cc1N` [4-(3-chlorpyridyl-5-oxy)-2,5-xylidine] it is 1.83.

As to `CCN(C)C=Nc1cc(C)c(Oc2cncc(Cl)c2)cc1C` [Example 64, N-Ethyl-N-methyl-N′-[4-(3-chlorpyridyl-5-oxy)-2,5-xylyl]formamidine], the “log P (pH 2.3)” value is listed as 1.70.
